Results from patent US20240254135A1, “POLYPHENOL COMPOUNDS” (Epirium Bio Inc., priority 2022, published 2024).

Tests used:
PGC-1α = assay: In vitro PGC-1α expression in differentiated C2C12 cells (cell ELISA); assay type: cell-based; details: 1 mM
Experimental: Culture conditions: DMEM containing 25 mM glucose with 10% FBS supplementation; grown at 37° C. and 5% CO2.
Drugs: (+)Epicatechin, AICAR (direct activator of AMPK).
Assay Conditions: C2C12 cells were cultured in DMEM supplemented in 10% FBS up to 80% confluence. The cells were further trypsinized and seeded into a 96 well plate at a density of 5000 cells/well (well volume—100 μL) (Day 0). Following attachment, the cells were allowed to reach 80-90% confluence in the plate (typically 48 hours post seeding) and further differentiated using DMEM+2% Horse Serum (200 μL/well). The media was changed every day or at least every alternate day for 5 days to allow myoblasts to differentiate into myotubes. On day 7 (post seeding), the cells were treated with standards and test compounds for PGC-1 α assay.
PGC-1α assay: For the detection of PGC-1α, the cells were incubated with 0.5 μg/ml primary antibody (Merck, WH0010891M3) in PBS-T containing 5% BSA at 4° C. overnight. The cells were then washed three times with PBS-T for 5 minutes and incubated with 1:1000 dilution secondary antibody (Anti-rabbit IgG, HRP-linked Antibody, Cell Signaling) in PBS-T with 1% BSA for 1 hour at RT. Cells were washed three times with PBS-T for 5 minutes The cells were incubated with 100 μl TMB substrate solution for 30 minutes and the reaction was stopped with 100 μl of 2N H2SO4. […] (For plate optical density calculations, a background correction was taken at 540 nm). The final PGC-1α activation % is average of activation of 6 replicates.

[1] = molecular target: T1, mitochondrial ATP synthase (Mus musculus, UniProt P56480+Q03265); assay: ATP synthesis (oxygen consumption, Seahorse XF96) in fresh heart mitochondria; assay type: biochemical; details: fresh heart mitochondria (FIG. 1, FIG. 2)
T1 construct: from tissue; host or cells: mouse heart, isolated mitochondria (fresh or frozen)
Excerpt: (§1) To assess whether the fraction of synthetic and reverse hydrolytic activities of mitochondrial ATP synthase can be measured in the same preparation, a protocol was developed to monitor changes in oxygen consumption and proton release in response to changes in mitochondrial ATP synthase activity. The proton released and the concomitant changes in the pH can be monitored using the ECAR (extracellular acidification) channel in the Agilent Seahorse XF analyzer using isolated mitochondria, to ensure that the changes in pH cannot be attributed to glycolysis or other contributors to ECAR.
(§2) Mice were anesthetized with isoflurane followed by a cervical dislocation, and the heart was immediately removed and placed in ice cold relaxation buffer (5 mM sodium pyrophosphate, 100 mM KCl, 5 mM EGTA, 5 mM HEPES; pH 7.4). The heart was squeezed with tweezers to remove blood, minced with scissors, and then placed in a glass-glass Dounce homogenizer with 3 mL of HES homogenization buffer (250 mM sucrose, 5 mM HEPES, 1 mM EDTA; pH to 7.2, adjusted with KOH). The heart tissue was homogenized first with the loose pestle and followed by the tight pestle. The homogenized tissue was placed in a pre-chilled 15 ml conical tube and centrifuged at 900×g (4° C.) for 10 minutes (min). The supernatant was removed, placed in a new tube and centrifuged again at 900×g for 10 min. The supernatant was then transferred to 2 mL microcentrifuge tubes and centrifuged at 10,000×g (4° C.) for 10 min. The mitochondrial pellets were re-suspended in ice cold HES buffer and mitochondrial protein was measured with a BCA assay (Pierce). The concentrated mitochondrial pellet was stored on ice.
Heart mitochondria (0.75-1.5 μg) were loaded into a Seahorse XF96 microplate in 20 μL of MAS (70 mM Sucrose, 220 mM Mannitol, 5 mM KH2PO4, 5 mM MgCl2, 1 mM EGTA, 2 mM HEPES; pH 7.2) plus 1% free fatty acid BSA containing substrates. The loaded plate was centrifuged at 2,000×g for 5 min at 4° C. […]
Oxygen consumption was measured in isolated fresh intact mitochondria from mouse heart, as oxygen consumption is linked to maximal ATP synthesis and proton release when mitochondria are respiring either in the presence of substrates and ADP (ATP synthesizing mitochondria or state 3) or in the presence of substrates but not ADP (state 4). […]
OCR and ECAR were measured in a Seahorse XF96 analyzer under basal conditions as well as after injection of 2 μM oligomycin, two sequential additions of 1.5 μM FCCP, followed by 1 μM rotenone with 2 μM antimycin A. Respiratory parameters were calculated according to standard protocols, and all rates were corrected for non-mitochondrial respiration/background signal by subtracting the oxygen consumption rate insensitive to rotenone plus antimycin A.

[2] = molecular target: T1, mitochondrial ATP synthase; assay: ATP hydrolysis (proton release/ECAR, Seahorse XF96) in fresh heart mitochondria; assay type: biochemical; details: fresh heart mitochondria (FIG. 1, FIG. 2)
Excerpt: as §1, §2
Heart mitochondria (0.75-1.5 μg) were loaded into a Seahorse XF96 microplate in 20 μL of MAS (70 mM Sucrose, 220 mM Mannitol, 5 mM KH2PO4, 5 mM MgCl2, 1 mM EGTA, 2 mM HEPES; pH 7.2) plus 1% free fatty acid BSA containing substrates. The loaded plate was centrifuged at 2,000×g for 5 min at 4° C. (no brake) and an additional 130 μL of MAS was added to each well. When assessing compounds effect on respirometry, the compounds were added at this point at the indicated concentration in MAS buffer. To avoid disrupting mitochondrial adherence to the bottom of the plate, MAS was added using a multichannel pipette pointed at a 45° angle to the top of the well-chamber, as instructed by the manufacturer. Substrate concentrations in the well when assay was starting in state 4 were as follow: (i) 5 mM pyruvate+5 mM malate or ii) 5 mM succinate+2 μM rotenone. Substrate concentrations in the well when assay was starting in state 3 were as follow: (i) 5 mM pyruvate+5 mM malate+4 mM ADP or ii) 5 mM succinate+2 μM rotenone+4 mM ADP. Injections were performed as indicated in the figure descriptions at the following final concentration in the well: oligomycin (3.5 μM), FCCP (4 μM), Antimycin A (2 μM). Compounds were added at the indicated concentration.
ATP hydrolysis capacity or state 4 acidification was measured using Seahorse XF96 as described in Divakaruni et al. (2018) Anal Biochem 552:60-65 and Acin-Perez et al. (2021) Life 11(9):949, in MAS (70 mM Sucrose, 220 mM Mannitol, 5 mM KH2PO4, 5 mM MgCl2, 1 mM EGTA, 2 mM HEPES; pH 7.2). Plates were loaded with 0.75-1.5 μg of mouse heart mitochondria, or 25 μg of cell lysate. Cell lysates were prepared by subjecting the samples to 4 cycles of free thaw (liquid nitrogen—37° C. water bath) before measuring protein concentration. When assessing compounds effect on respirometry, the compounds were added in MAS after sample centrifugation. Initial respiration of the samples was sustained by the addition of 5 mM succinate+2 μM rotenone in the MAS after centrifugation. Injections were performed at the following final concentration in the well: Antimycin A (2 μM), oligomycin (5 μM), FCCP (1 μM), ATP (20 mM). To assess maximal ATP concentration, ATP was injected consecutively. […]

[3] = molecular target: T1, mitochondrial ATP synthase; assay: Maximal ATP hydrolysis capacity in frozen heart mitochondria; assay type: biochemical; details: frozen heart mitochondria, different concentrations in the assay media
Experimental: ATP hydrolysis capacity or state 4 acidification was measured using Seahorse XF96 as described in Divakaruni et al. (2018) Anal Biochem 552:60-65 and Acin-Perez et al. (2021) Life 11(9):949, in MAS (70 mM Sucrose, 220 mM Mannitol, 5 mM KH2PO4, 5 mM MgCl2, 1 mM EGTA, 2 mM HEPES; pH 7.2). Plates were loaded with 0.75-1.5 μg of mouse heart mitochondria, or 25 μg of cell lysate. Cell lysates were prepared by subjecting the samples to 4 cycles of free thaw (liquid nitrogen—37° C. water bath) before measuring protein concentration. When assessing compounds effect on respirometry, the compounds were added in MAS after sample centrifugation. Initial respiration of the samples was sustained by the addition of 5 mM succinate+2 μM rotenone in the MAS after centrifugation. Injections were performed at the following final concentration in the well: Antimycin A (2 μM), oligomycin (5 μM), FCCP (1 μM), ATP (20 mM). To assess maximal ATP concentration, ATP was injected consecutively.
An additional assay was developed to determine the maximal ATP hydrolysis capacity in frozen mitochondria. Maximal ATP hydrolytic capacity was assessed in frozen heart mitochondria where mitochondrial respiration is inhibited by Antimycin A and maximal ATP hydrolysis is driven by co-injection of FCCP and ATP, followed by inhibition in the presence of oligomycin.

Structure (SMILES) | % Activity (PGC-1α expression) (PGC-1α; Table 4, differentiated C2C12 cells, OD at 5 minutes) [%] | % Activity (PGC-1α expression) (PGC-1α; Table 5, differentiated C2C12, 5000 cells/well, DMSO = 100) [%] | % Activity (PGC-1α expression) (PGC-1α; Table 6, C2C12 cells, 5000 cells/well) [%] | % Activity (PGC-1α expression) (PGC-1α; Table 7, C2C12 cells, 5000 cells/well, DMSO = 100) [%] | % Activity (PGC-1α expression) (PGC-1α; Table 8, C2C12 cells, 5000 cells/well, DMSO = 100) [%] | change in ATP synthesis [1] | changes in ATP hydrolysis [2] | inhibition of ATP hydrolysis [3]
NC(=O)c1ncn([C@@H]2O[C@H](CO)[C@@H](O)[C@H]2O)c1N [AICAR, 5-aminoimidazole-4-carboxamide-1-β-D-ribofuranoside] | 128 | 122 | 136 | 122 | 140 | – | – | –
CC[C@H]1/C=C/C=C/C[C@@H](C)[C@H](O)[C@@](C)(O)C(=O)[C@@H](C)[C@H](O)[C@@H](C)C(=O)[C@@H](C)[C@H](O)[C@@H](C)/C=C/C(=O)O[C@@H]2[C@H](C)[C@H](CC1)O[C@]1(CC[C@H](C)[C@H](C[C@@H](C)O)O1)[C@H]2C [Oligomycin, oligomycin, reference compound] | – | – | – | – | – | worked as expected | worked as expected | dose dependent inhibition
